From patent publication US20240277700A1, “COMPOSITIONS AND METHODS FOR TREATING AND PREVENTING INTERSTITIAL CYSTITIS” (Hista RX LLC, priority 2021, published 2024)

Experiments:
[1] = test system: patient with interstitial cystitis; assay: Example 2: case report, patient with chronic interstitial cystitis and IBS-diarrhea; settings: person; before the combination
[2] = test system: patients with IC; settings: cited from earlier work
[3] = test system: patient with painful bladder syndrome; assay: Example 3: case report, patient with chronic painful bladder syndrome; assay type: in vivo, human; settings: person; prior treatment without the combination

In the case of Sucralfate, the “resolution of urologic and/or gastrointestinal conditions by previous medications” value [1] is reported as “without resolution”.

In the case of `COc1ccc2nc([S@@+]([O-])Cc3ncc(C)c(OC)c3C)[nH]c2c1` [Esomeprazole], the “resolution of urologic and/or gastrointestinal conditions by previous medications” value [1] is reported as “without resolution”.

In the case of `CN/C(=N/CCSCc1nc[nH]c1C)NC#N` [cimetidine], the “symptomatic relief of IC” value ([2]; monotherapy 300 mg bid (600 mg daily) for one month, case series of 9 patients) is listed as “effective”.

In the case of `OCCOCCN1CCN(C(c2ccccc2)c2ccc(Cl)cc2)CC1` (centres unmarked) [Hydroxyzine], the “symptomatic relief by prior treatment” value [3] is listed as “insufficient” and the “benefit in the treatment of IC” value ([2]; monotherapy) is listed as “some limited benefit”.
